We go through 15 molecules from ChEMBL document CHEMBL1909046, “DrugMatrix in vitro pharmacology data”.

Where a SMILES comes first, the peptide text is derived from it. Bridges are numbered along the chain shown (N, C = ends). [ ]: non-standard residue; d: D form. The star is where a group is joined. Threoninol(2S,3R) = C[C@@H](O)[C@H](CO)N*

In data set [1] the target is T1, C-X-C chemokine receptor type 2 (Homo sapiens, UniProt P25025).
T1 sequence (P25025 whole entry): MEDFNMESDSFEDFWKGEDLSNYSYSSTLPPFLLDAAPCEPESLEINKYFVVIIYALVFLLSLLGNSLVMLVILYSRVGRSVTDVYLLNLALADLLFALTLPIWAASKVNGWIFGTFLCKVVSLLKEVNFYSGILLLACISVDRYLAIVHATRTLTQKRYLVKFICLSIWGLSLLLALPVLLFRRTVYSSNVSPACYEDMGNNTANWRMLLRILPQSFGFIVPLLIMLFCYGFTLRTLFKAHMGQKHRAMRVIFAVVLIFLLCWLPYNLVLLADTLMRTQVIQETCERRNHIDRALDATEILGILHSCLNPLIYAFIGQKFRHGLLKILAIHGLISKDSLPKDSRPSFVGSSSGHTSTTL
Format: cell membranes, Membrane. The following applies: cho-k1.

Another data set addresses Melanocortin receptor 5 (Homo sapiens, UniProt P33032). The class given is cell membranes, Membrane. The following applies: hek293.
Data set [2] addresses T2, Angiotensin-converting enzyme (Oryctolagus cuniculus, UniProt P12822).
T2 sequence (P12822 whole entry): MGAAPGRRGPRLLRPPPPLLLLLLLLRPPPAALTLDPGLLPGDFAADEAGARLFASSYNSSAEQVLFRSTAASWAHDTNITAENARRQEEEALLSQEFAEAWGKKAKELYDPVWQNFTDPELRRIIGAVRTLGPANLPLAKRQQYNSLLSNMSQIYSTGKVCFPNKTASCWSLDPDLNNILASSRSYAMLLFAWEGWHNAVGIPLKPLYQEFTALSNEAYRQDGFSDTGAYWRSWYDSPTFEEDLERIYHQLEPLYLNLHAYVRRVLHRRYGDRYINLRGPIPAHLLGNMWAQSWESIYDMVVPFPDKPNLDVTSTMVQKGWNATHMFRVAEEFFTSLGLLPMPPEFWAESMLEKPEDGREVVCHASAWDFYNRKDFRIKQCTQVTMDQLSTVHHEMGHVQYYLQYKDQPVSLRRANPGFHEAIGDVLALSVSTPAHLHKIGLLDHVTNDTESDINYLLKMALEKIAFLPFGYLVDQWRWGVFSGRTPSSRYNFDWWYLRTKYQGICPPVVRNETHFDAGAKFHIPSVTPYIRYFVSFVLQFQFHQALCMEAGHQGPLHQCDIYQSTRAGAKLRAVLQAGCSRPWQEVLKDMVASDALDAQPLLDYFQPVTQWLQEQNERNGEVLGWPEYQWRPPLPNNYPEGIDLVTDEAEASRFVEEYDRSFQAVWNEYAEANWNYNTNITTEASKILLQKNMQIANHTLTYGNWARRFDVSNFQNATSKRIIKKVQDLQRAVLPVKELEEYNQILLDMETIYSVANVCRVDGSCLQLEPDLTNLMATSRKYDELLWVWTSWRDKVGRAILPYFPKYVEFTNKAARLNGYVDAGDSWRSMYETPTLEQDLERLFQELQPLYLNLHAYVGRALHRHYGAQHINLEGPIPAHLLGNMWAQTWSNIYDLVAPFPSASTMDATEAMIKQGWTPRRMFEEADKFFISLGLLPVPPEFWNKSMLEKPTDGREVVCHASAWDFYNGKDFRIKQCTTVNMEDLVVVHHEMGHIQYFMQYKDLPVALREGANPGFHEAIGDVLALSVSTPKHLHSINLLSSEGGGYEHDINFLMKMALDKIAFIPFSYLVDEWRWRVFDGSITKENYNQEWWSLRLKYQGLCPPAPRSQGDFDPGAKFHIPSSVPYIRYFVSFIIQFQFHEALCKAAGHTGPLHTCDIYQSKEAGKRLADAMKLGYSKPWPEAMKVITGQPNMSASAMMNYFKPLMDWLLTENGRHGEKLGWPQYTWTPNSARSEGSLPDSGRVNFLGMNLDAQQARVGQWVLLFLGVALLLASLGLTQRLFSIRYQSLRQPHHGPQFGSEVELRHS
Format: tissue-based, Lung.

In another data set the target is T3, Interstitial collagenase (Homo sapiens, UniProt P03956).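 Also: MMP-1 enzyme inhibition assay using a peptide substrate.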
T3 sequence (P03956 whole entry): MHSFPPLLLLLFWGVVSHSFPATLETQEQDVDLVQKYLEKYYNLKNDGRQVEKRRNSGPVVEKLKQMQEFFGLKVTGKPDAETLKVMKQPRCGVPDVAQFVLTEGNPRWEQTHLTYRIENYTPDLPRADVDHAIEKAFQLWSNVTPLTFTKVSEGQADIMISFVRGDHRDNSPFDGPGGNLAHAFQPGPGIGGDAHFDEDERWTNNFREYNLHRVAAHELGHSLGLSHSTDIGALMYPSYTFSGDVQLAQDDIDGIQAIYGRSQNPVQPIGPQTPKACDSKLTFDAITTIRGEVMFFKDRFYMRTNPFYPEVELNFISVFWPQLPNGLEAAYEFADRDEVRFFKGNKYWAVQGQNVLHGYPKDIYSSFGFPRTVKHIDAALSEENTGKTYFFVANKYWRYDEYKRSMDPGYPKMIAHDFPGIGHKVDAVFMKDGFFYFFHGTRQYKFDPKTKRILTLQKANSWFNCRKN
Description: biochemical. Format: tissue-based, Rheumatoid synovial fibroblasts.

Data set [3] addresses Tyrosine-protein kinase Fyn (Homo sapiens, UniProt P06241). Description: biochemical. Format: cell-based, Insect cells. The settings on record: insect cells.
Another data set has as its target T4, Cytochrome P450 2A6 (Homo sapiens, UniProt P11509).
T4 sequence (P11509 whole entry): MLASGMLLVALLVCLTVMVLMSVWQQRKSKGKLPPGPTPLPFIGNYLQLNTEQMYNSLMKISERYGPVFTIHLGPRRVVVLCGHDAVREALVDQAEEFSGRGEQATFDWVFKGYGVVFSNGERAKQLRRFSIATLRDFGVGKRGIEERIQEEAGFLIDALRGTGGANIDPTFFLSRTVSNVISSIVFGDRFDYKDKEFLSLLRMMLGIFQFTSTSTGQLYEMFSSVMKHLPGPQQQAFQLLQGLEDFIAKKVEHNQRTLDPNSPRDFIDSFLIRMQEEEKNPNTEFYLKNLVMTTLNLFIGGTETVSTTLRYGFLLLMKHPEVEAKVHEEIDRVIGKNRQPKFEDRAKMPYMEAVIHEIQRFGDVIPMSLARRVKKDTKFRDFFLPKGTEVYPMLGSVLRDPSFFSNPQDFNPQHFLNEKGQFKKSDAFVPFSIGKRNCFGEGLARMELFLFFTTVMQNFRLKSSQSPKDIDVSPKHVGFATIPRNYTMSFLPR
The settings on record: bti-tn-5b1-4.

In data set [4] the target is Mitogen-activated protein kinase 14 (Homo sapiens, UniProt Q16539). Details: species or system Escherichia coli.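 Also: inhibition of p38alpha enzyme activity in a biochemical kinase assay, with myelin basic protein serving as substrate.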
Also: in other assays of this panel Not Active means under 50% inhibition at 10 µM.

Melanocortin receptor 5, sequence (P33032 whole entry): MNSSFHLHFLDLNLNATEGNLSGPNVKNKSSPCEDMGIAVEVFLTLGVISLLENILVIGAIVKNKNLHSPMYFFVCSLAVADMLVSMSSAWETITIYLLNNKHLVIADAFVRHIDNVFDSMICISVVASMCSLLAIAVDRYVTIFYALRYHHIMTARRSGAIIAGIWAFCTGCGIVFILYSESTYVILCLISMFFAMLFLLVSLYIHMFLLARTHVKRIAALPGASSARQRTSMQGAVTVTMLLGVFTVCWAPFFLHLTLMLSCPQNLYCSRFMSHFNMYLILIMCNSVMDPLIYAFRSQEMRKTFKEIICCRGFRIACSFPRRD
Tyrosine-protein kinase Fyn, sequence (P06241 whole entry): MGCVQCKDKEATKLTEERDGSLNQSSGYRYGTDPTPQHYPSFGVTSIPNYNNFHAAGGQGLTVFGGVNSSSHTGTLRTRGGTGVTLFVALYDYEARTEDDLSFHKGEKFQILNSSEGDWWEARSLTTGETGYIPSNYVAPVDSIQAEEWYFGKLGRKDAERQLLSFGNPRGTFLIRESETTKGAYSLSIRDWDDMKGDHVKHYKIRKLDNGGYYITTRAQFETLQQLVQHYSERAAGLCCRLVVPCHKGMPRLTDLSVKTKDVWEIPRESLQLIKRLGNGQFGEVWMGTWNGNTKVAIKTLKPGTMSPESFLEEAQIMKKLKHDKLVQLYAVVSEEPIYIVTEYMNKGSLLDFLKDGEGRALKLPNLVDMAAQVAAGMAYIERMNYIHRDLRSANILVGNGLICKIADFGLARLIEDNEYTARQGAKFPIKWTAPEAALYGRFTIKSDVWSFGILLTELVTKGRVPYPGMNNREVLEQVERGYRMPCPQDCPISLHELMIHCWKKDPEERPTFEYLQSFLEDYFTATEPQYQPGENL
Mitogen-activated protein kinase 14, sequence (Q16539 whole entry): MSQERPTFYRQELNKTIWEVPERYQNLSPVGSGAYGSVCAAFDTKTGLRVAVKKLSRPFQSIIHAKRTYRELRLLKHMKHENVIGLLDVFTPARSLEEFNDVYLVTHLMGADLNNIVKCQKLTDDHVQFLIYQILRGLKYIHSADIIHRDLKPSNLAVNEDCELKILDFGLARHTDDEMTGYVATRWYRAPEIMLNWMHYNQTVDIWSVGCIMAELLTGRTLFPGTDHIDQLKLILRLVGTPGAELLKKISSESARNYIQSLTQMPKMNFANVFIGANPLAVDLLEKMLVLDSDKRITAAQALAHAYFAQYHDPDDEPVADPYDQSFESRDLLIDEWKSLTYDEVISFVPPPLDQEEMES

As for `COc1ccccc1C(=O)N1CCC(Cc2ccccc2)CC1`, the IC50 result (in data set [1]; at Melanocortin receptor 5; in data set [2]; against Interstitial collagenase; in data set [3]; against Cytochrome P450 2A6) was “Not Active” throughout. In addition, the Ki result at Cytochrome P450 2A6 was “Not Active”.

Consider `Cc1ccccc1C(=O)N1CCC(Cc2ccccc2)CC1`, for which the IC50 – broadly, the concentration that gives 50% inhibition – in data set [1] was “Not Active”; at Melanocortin receptor 5, “Not Active”; in data set [2], “Not Active”; against Interstitial collagenase, “Not Active”; in data set [4] (read-out: IC50) it was 329 nM; in data set [3] it was “Not Active”. The IC50 result at Cytochrome P450 2A6 was “Not Active”. The Ki result on Cytochrome P450 2A6 was “Not Active”.

For the molecule `O=C1CC[C@H](N2C(=O)c3ccccc3C2=O)C(=O)N1`, the IC50 result (in data set [1]; against Melanocortin receptor 5; in data set [2]; against Interstitial collagenase; in data set [4]; in data set [3]) was “Not Active” throughout. For the same molecule, at Cytochrome P450 2A6, the IC50 entry was “Not Active”. The Ki entry on Cytochrome P450 2A6 is listed as “Not Active”.

`N=C(Nc1ccccc1)Nc1ccccc1`: the IC50 entry (in data set [1]; on Melanocortin receptor 5; in data set [2]; against Interstitial collagenase; in data set [4]; in data set [3]) was “Not Active” in each case. In addition, on Cytochrome P450 2A6, the IC50 entry is given as “Not Active”. Moreover, the Ki entry at Cytochrome P450 2A6 is given as “Not Active”.

Regarding `C[C@@H](O)[C@H](CO)NC(=O)[C@@H]1CSSC[C@H](NC(=O)[C@H](N)Cc2ccccc2)C(=O)N[C@@H](Cc2ccccc2)C(=O)N[C@H](Cc2c[nH]c3ccccc23)C(=O)N[C@@H](CCCCN)C(=O)N[C@@H]([C@@H](C)O)C(=O)N1` (H-[dF]CF[dW]KTC-{Threoninol(2S,3R)}; disulfide 2-7), the IC50 entry (in data set [1]; against Melanocortin receptor 5; in data set [2]; on Interstitial collagenase; in data set [4]; in data set [3]) was “Not Active” throughout. Moreover, on Cytochrome P450 2A6, the 50% inhibitory concentration (IC50) entry is given as “Not Active”. The Ki result on Cytochrome P450 2A6 is given as “Not Active”.

For the molecule `S=C=Nc1cccc2ccccc12` [1-NAPHTHYLISOTHIOCYANATE], the IC50 entry (in data set [1]; at Melanocortin receptor 5; in data set [2]; on Interstitial collagenase; in data set [4]; in data set [3]) was “Not Active” in each case. The IC50 result at Cytochrome P450 2A6 is reported as “Not Active”. Moreover, the Ki result on Cytochrome P450 2A6 is “Not Active”.

Take `C[C@](O)(CS(=O)(=O)c1ccc(F)cc1)C(=O)Nc1ccc(C#N)c(C(F)(F)F)c1` [(R)-BICALUTAMIDE]: the IC50 result (in data set [1]; at Melanocortin receptor 5; in data set [2]; against Interstitial collagenase; in data set [4]; in data set [3]) was “Not Active” each time. The IC50 entry against Cytochrome P450 2A6 was “Not Active”. For the same molecule, the Ki entry at Cytochrome P450 2A6 was “Not Active”.

For the molecule `CCCC(=O)Nc1ccc(OCC(O)CNC(C)C)c(C(C)=O)c1` (stereo not given) [ACEBUTOLOL], the half-maximal inhibitory concentration (IC50) entry (in data set [1]; against Melanocortin receptor 5; in data set [2]; against Interstitial collagenase; in data set [4]; in data set [3]) was “Not Active” throughout. At Cytochrome P450 2A6, the IC50 result was “Not Active”. Also, the Ki entry on Cytochrome P450 2A6 is “Not Active”.

For the molecule `O=NN(CCCl)C(=O)NCCCl` [CARMUSTINE], the IC50 result (in data set [1]; against Melanocortin receptor 5; in data set [2]; on Interstitial collagenase; in data set [4]; in data set [3]) was “Not Active” each time.

Regarding `O=C(N[C@H](CO)[C@H](O)c1ccc([N+](=O)[O-])cc1)C(Cl)Cl` [CHLORAMPHENICOL], the IC50 result (in data set [1]; at Melanocortin receptor 5; in data set [2]; against Interstitial collagenase; in data set [4]; in data set [3]) was “Not Active” each time.

For `C[C@@H]1C[C@@H]([C@H](O)CC2CC(=O)NC(=O)C2)C(=O)[C@@H](C)C1` [CYCLOHEXIMIDE], the IC50 entry (in data set [1]; against Melanocortin receptor 5; in data set [2]; at Interstitial collagenase; in data set [4]; in data set [3]) was “Not Active” in each case.

`C/C=C/C[C@@H](C)[C@@H](O)[C@H]1C(=O)N[C@@H](CC)C(=O)N(C)CC(=O)N(C)[C@@H](CC(C)C)C(=O)N[C@@H](C(C)C)C(=O)N(C)[C@@H](CC(C)C)C(=O)N[C@@H](C)C(=O)N[C@H](C)C(=O)N(C)[C@@H](CC(C)C)C(=O)N(C)[C@@H](CC(C)C)C(=O)N(C)[C@@H](C(C)C)C(=O)N1C` [CYCLOSPORINE]: the 50% inhibitory concentration (IC50) entry (in data set [1]; at Melanocortin receptor 5; in data set [2]; at Interstitial collagenase; in data set [4]; in data set [3]) was “Not Active” throughout.

As for `NC(=O)NO` [HYDROXYUREA], the IC50 entry (in data set [1]; on Melanocortin receptor 5; in data set [2]; against Interstitial collagenase; in data set [4]; in data set [3]) was “Not Active” throughout.

Take `COc1ccc2cc([C@H](C)C(=O)O)ccc2c1` [NAPROXEN]: the IC50 entry (in data set [1]; at Melanocortin receptor 5; in data set [2]; at Interstitial collagenase; in data set [4]; in data set [3]) was “Not Active” in each case.

Take `CCn1cc(C(=O)O)c(=O)c2cc(F)c(N3CCN(C)CC3)cc21` [PEFLOXACIN]: the IC50 entry (in data set [1]; against Melanocortin receptor 5; in data set [2]; against Interstitial collagenase; in data set [4]; in data set [3]) was “Not Active” each time.
